Patent publication US20230159916A1, “METHODS OF FUNCTIONAL LINKAGE OF CHROMOSOMAL POSITIONS” (ARPEGGIO BIOSCIENCES, INC., priority 2020, published 2023)

Columns and labels:
HMOX1 [1] = assay: nascent RNA sequencing of HT-1080 cells exposed to GPX4 inhibitors; assay type: cell-based; settings: HT-1080, 1 μM, 1 hour, Pval<10^−2
Method: (§1) To assess the transcriptional response of a cell to inhibition of GPX4, we exposed two cell lines to two different chemical inhibitors of GPX4 (ML162 and RSL3; available from Sigma Aldrich and Apex Bio respectively) and examined the transcriptional responses using a nascent RNA sequencing protocol. Briefly, a fibrosarcoma cell line HT-1080 and a lung fibroblast cell line IMR90 were exposed to 1 μM ML162 or 1 μM RSL3 for 1 hour and the nascent RNA sequencing protocol was performed.

HMOX1 [2] = assay: nascent RNA sequencing of IMR90 cells exposed to GPX4 inhibitors; assay type: cell-based; settings: IMR90, 1 μM, 1 hour, Pval 10^−3
Method: as §1

HMOX1 [3] = assay: RT-qPCR of HMOX1 expression in HT-1080 cells; assay type: cell-based; settings: for expression of HMOX1 relative to ACTB, absence of ferrostatin-1: HT-1080, 1 μM, four hours; for effect of ferrostatin-1 on the substance's induction of HMOX1: HT-1080, sodium arsenite 80 μM, hemin 5 μM, RSL3 1 μM, with or without 1 μM ferrostatin-1, four hours, normalized to DMSO
Method: (§2) To confirm HMOX1 induction by the GPX4 inhibitors, an RT-qPCR assay was performed using three ferroptosis sensitive cancer cell lines: the fibrosarcoma cell line HT-1080, a Ewing's sarcoma cell line A673, and a renal clear cell carcinoma cell line 786-O. Briefly, cells were exposed to 1 μM ML162 or 1 μM RSL3 for 4 hours, RNA was isolated and an RT-qPCR assay was performed.
To further validate induction of HMOX1 mRNA expression by GPX4 inhibition, RT-qPCR was performed using varying doses of the RSL3 inhibitor. Briefly, HT-1080 cells were exposed to 5 μM RSL3, 1 μM RSL3, and 0.2 μM RSL3 for four hours, RNA was isolated and an RT-qPCR assay was performed to quantify HMOX1 expression. DMSO was used as a control exposure.
(§3) Briefly, HT-1080, A673, and 786-O cells were exposed to 1 μM ML162 or 1 μM RLS3 with or without 1 μM ferrostatin-1 for four hours, RNA was isolated and an RT-qPCR assay was performed to quantify HMOX1 expression. DMSO was used as a control exposure.
Sodium arsenite and hemin are known to be inducers of general oxidative stress in cells. Briefly, HT-1080 cells were exposed to sodium arsenite (80 μM), hemin (5 μM), ML162 (1 μM), or RSL3 (1 μM) with or without 1 μM ferrostatin-1 for four hours, RNA was isolated and an RT-qPCR assay was performed to quantify HMOX1 expression. DMSO was used as a control exposure.

HMOX1 [4] = assay: RT-qPCR of HMOX1 expression in A673 cells; assay type: cell-based; settings: A673, 1 μM, four hours
Method: as §2, §3

HMOX1 [5] = assay: RT-qPCR of HMOX1 expression in 786-O cells; assay type: cell-based; settings: 1 μM, four hours
Method: as §2, §3

HMOX1 [6] = assay: RT-qPCR of HMOX1, ferrostatin-1 rescue of GPX4 inhibitor-mediated induction in HT-1080, A673 and 786-O cells; assay type: cell-based; settings: HT-1080, A673, 786-O; 1 μM ferrostatin-1 with 1 μM ML162 or RSL3, four hours
Method: as §3

[7] = tested on: HT-1080, A673, and 786-O cells lines; settings: ferrostatin-1 added to the culture media; HT-1080, A673, 786-O; cited from earlier work

Compound	differential expression of HMOX1 (nascent RNA sequencing) (HMOX1 [1])	differential expression of HMOX1 (nascent RNA sequencing) (HMOX1 [2])	expression of HMOX1 relative to ACTB, absence of ferrostatin-1 (HMOX1 [3])	expression of HMOX1 relative to ACTB, absence of ferrostatin-1 (HMOX1 [4])	expression of HMOX1 relative to ACTB, absence of ferrostatin-1 (HMOX1 [5])	effect of ferrostatin-1 on the substance's induction of HMOX1 (HMOX1 [3])	further results
COc1ccc(N(C(=O)CCl)C(C(=O)NCCc2ccccc2)c2cccs2)cc1Cl (centres unmarked) [ML162]	strongly differentially expressed	strongly differentially expressed	HMOX1 expression was observed in all three cell lines	HMOX1 expression was observed in all three cell lines	HMOX1 expression was observed in all three cell lines	–	expression of HMOX1 relative to ACTB, presence of ferrostatin-1 (HMOX1 [3]; HT-1080, 1 μM inhibitor with 1 μM ferrostatin-1, four hours): induced HMOX1 even in the presence of ferrostatin-1
COC(=O)c1ccc([C@@H]2c3[nH]c4ccccc4c3C[C@@H](C(=O)OC)N2C(=O)CCl)cc1 [RSL3]	strongly differentially expressed	strongly differentially expressed	HMOX1 expression was observed in all three cell lines	HMOX1 expression was observed in all three cell lines	HMOX1 expression was observed in all three cell lines	dependent on lipid peroxidation	dose dependence of HMOX1 expression relative to ACTB (HMOX1 [3]; HT-1080, 5 μM, 1 μM and 0.2 μM RSL3, four hours): proportional to the dose
CCOC(=O)c1ccc(NC2CCCCC2)c(N)c1 [ferrostatin-1]	–	–	–	–	–	–	effect of ferrostatin-1 on induction of HMOX1 by RSL3 and ML162 (HMOX1 [6]): sufficient to prevent induction of HMOX1 in most conditions; cellular viability of cells treated with small molecules that induce lipid peroxidation (e.g., GPX4 inhibitors) [7]: rescues cellular viability
O=[As]O [sodium arsenite]	–	–	–	–	–	not affected by the presence of ferrostatin-1	–
hemin	–	–	–	–	–	not affected by the presence of ferrostatin-1	–
